Source: US9993459B2, “Selective HDAC6 inhibitors and uses thereof” (Universiteit Gent, priority 2015, dated 2018)
“And” between values parts separate entries of the source, which are not always exact repeats. Equal entries are not always repeated.

Experiments:
[1] = molecular target: T1, HDAC6 (Homo sapiens, UniProt Q9UBN7); assay: In vitro HDAC6 inhibition; format: biochemical; conditions: for inhibition at 10 µM: HDAC6, 10 μM; for IC50: HDAC6, Table 1, read-out: IC50
T1 sequence (Q9UBN7 1-1215): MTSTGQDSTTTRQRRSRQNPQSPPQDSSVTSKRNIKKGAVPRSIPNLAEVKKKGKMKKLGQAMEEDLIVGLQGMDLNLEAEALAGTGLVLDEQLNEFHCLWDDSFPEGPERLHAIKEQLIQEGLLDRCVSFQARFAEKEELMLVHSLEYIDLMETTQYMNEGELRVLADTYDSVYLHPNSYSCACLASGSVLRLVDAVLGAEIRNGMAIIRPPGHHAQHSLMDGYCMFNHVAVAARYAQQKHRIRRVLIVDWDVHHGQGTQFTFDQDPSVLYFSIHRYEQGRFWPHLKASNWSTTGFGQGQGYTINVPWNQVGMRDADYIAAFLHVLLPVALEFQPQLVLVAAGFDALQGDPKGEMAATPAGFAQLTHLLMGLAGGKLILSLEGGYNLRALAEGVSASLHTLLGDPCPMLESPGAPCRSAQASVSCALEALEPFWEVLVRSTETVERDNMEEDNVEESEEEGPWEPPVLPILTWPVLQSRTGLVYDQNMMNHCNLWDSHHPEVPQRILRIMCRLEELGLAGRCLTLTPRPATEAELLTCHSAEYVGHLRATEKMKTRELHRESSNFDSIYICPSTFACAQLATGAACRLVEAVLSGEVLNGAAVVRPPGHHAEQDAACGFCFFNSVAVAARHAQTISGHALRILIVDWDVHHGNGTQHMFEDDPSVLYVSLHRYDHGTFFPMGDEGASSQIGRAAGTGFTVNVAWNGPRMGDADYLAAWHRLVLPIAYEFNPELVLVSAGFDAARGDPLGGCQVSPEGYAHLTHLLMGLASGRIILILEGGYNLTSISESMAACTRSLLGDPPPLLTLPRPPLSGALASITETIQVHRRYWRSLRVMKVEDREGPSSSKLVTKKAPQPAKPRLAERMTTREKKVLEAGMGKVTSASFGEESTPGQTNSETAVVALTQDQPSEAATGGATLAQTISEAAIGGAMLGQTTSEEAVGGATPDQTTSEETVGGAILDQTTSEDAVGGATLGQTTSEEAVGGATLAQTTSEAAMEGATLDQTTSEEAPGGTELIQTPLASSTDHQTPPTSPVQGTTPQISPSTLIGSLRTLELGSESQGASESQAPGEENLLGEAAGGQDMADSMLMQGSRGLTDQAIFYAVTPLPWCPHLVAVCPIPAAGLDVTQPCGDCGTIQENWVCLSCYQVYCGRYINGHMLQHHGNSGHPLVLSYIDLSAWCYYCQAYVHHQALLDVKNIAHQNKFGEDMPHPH

[2] = tested on: acetylation of α-tubulin in Neuro-2a cells; assay: Acetylation level of α-tubulin in Neuro-2a cells (Western blot); format: cell-based, Mouse; conditions: overnight, Neuro-2a; for normalized ratio Acetyl α-Tubulin/α-Tubulin against Tubastatin A, Average: Average of N = 1 to 4
Method: FIG. 1: Potency of inhibiting HDAC6 by compounds 7a, 7b and 13a in Neuro-2a cells. A. Cells were treated overnight with different concentrations of the HDAC6 inhibitors and blotted of the acetylation of α-tubulin.
Mouse neuroblastoma (Neuro-2a) cells were grown in a 1:1 mix of D-MEM (Dulbecco's Modified Eagle Medium) and F12 medium supplemented with glutamax (Invitrogen), 100 μg/ml streptomycin, 100 U/ml penicillin (Invitrogen), 10% fetal calf serum (Greiner Bio-one), 1% non-essential amino acids (Invitrogen) and 1.6% NaHCO3 (Invitrogen) at 37° C. and 7.5% CO2. To split the cells, cells were washed with Versene (Invitrogen) and dissociated with 0.05% Trypsine-EDTA (Invitrogen).
For sodium dodecyl sulfate-polyacrylamide gel electrophoresis (SDS-PAGE) analysis, transfected cells were collected using the EpiQuik Total Histone Extraction Kit (EpiGentek) according to manufacturer's instructions. Protein concentrations were determined using microBCA kit (Thermo Fisher Scientific Inc., Pittsburgh, Pa., USA) according to manufacturer's instructions. Before resolving the samples on a 12% SDS-PAGE gel, samples containing equal amounts of protein were supplemented with reducing sample buffer (Thermo Scientific) and boiled at 95° C. for 5 min. After electrophoresis, the proteins were transferred to a polyvinylidene difluoride (PVDF) membrane (Millipore Corp., Bedford, Mass., USA). The non-specific binding was blocked by incubation of the membrane in 5% bovine serum albumin (BSA), diluted in Tris Buffered Saline Tween (TBST, 50 mM TRIS, 150 mM NaCl, 0.1% Tween-20 (Applichem, Darmstadt, Duitsland) for 1 h at room temperature followed by incubation with primary antibodies overnight. The antibodies, diluted in TBS-T, were directed against α-tubulin (1/5000, T6199, Sigma-Aldrich), and acetylated α-tubulin (1/5000, T6793 monoclonal, Sigma-Aldrich). The secondary antibodies, coupled to alkaline phosphatase (anti-mouse or anti-rabbit, 1/5000, Sigma-Aldrich) were used. Blots were visualised by adding the ECF substrate (Enhanced Chemical Fluorescence, GE Healthcare, Uppsala, Sweden) and imaged with the ImageQuant_LAS 4000. A mild reblotting buffer (Millipore) was applied to strip the blots. ImageQuant TL version 7.0-software was used to quantify the blots.
Neuro-2a cells were treated overnight with different concentrations of the HDAC6 inhibitors and the effect on the acetylation level of α-tubulin was determined using Western blots (FIG. 1).

[3] = tested on: TNF-α and IL-6 in LPS stimulated human THP-1 macrophages; conditions: reported; cited from earlier work
[4] = tested on: AP-1; conditions: published before; cited from earlier work
[5] = tested on: glucocorticoid receptor, GR; assay: GRE-dependent luciferase reporter p(GRE)2-50-luc in A549 cells; format: cell-based; conditions: A549; DEX 1 μM; CpdA 10 μM before DEX

**Q.** For O=C(NO)c1ccc(N(Cc2ccccc2)Cc2csc3ccccc23)cc1 [Compound 8a, 3-[N-benzyl-N-(4-hydroxycarbamoylphenyl)aminomethyl]-benzothiophene], which melting point is on record?
**A.** 178 °C

**Q.** And the inhibition at 10 µM [1]?
**A.** 89.9%

**Q.** What about the IC50 [1] of the same molecule?
**A.** 470 nM

**Q.** For CN1CCc2c(c3ccccc3n2Cc2ccc(C(=O)NO)cc2)C1 [Tub A, Tubastatin A, reference compound], which “normalized ratio Acetyl α-Tubulin/α-Tubulin against Tubastatin A, Average” value ([2]; 50 nM) is on record?
**A.** 34.97 and 25.12 and 23.86

**Q.** What about the “normalized ratio Acetyl α-Tubulin/α-Tubulin against Tubastatin A, Average” value ([2]; 100 nM) of the same molecule?
**A.** 44.00 and 41.43 and 34.18

**Q.** And the “normalized ratio Acetyl α-Tubulin/α-Tubulin against Tubastatin A, Average” value ([2]; 500 nM)?
**A.** 66.24 and 73.15 and 70.36

**Q.** What about the “normalized ratio Acetyl α-Tubulin/α-Tubulin against Tubastatin A, Average” value ([2]; 1 μM) of the same molecule?
**A.** 100.00

**Q.** What about the “normalized ratio Acetyl α-Tubulin/α-Tubulin against Tubastatin A” value ([2]; 1 μM, single experiments N = 1 to 4, Tub A 1 μM = 100) of the same molecule?
**A.** 100.00

**Q.** And the “inhibition of TNF-α and IL-6” value [3]?
**A.** significantly inhibit TNF-α and IL-6

**Q.** Which melting point does the source give for O=C(NO)c1ccc(NCc2c[nH]c3ccccc23)cc1 [Compound 18, 3-[(4-hydroxycarbamoylphenyl)aminomethyl]indole] here?
**A.** 132.5 °C

**Q.** What about the inhibition at 10 µM [1] of the same molecule?
**A.** 99%

**Q.** What about the IC50 [1] of the same molecule?
**A.** 200 nM

**Q.** Which melting point does the source give for O=C(NO)c1ccc(N(Cc2ccccc2)Cc2csc3ccc(-c4ccccc4)cc23)cc1 [Compound 8c, 3-[N-benzyl-N-(4-hydroxycarbamoylphenyl)aminomethyl]-5-phenyl-benzothiophene] here?
**A.** 126 °C

**Q.** What about the inhibition at 10 µM [1] of the same molecule?
**A.** 47.9%

**Q.** What does the source list for CNCC(Cl)c1ccc(OC(C)=O)cc1.Cl (stereo not drawn) [CpdA, reference compound]?
**A.** targeting of AP-1-driven promoters [4]: does not target AP-1-driven promoters; GRE-dependent reporter gene activity, reference compounds [5]: able to lower the GRE-dependent reporter gene activity

**Q.** For O=C(NO)c1ccc(NCc2csc3ccc(-c4ccccc4)cc23)cc1 [Compound 7c, 3-[(4-hydroxycarbamoylphenyl)aminomethyl]-5-phenyl-benzothiophene], which melting point is on record?
**A.** 181 °C

**Q.** What about the inhibition at 10 µM [1] of the same molecule?
**A.** 95.1%

**Q.** What about the IC50 [1] of the same molecule?
**A.** 310 nM

**Q.** What does the source list for O=C(NO)c1ccc(N(Cc2ccccc2)Cc2csc3cc(Br)ccc23)cc1 [Compound 14a, 6-bromo-3-[N-benzyl-N-(4-hydroxycarbamoylphenyl)aminomethyl]-benzothiophene]?
**A.** melting point: 97.5 °C; inhibition at 10 µM [1]: 70.7%; IC50 [1]: 2100 nM

**Q.** With O=C(NO)c1ccc(N(Cc2ccccc2)Cc2csc3ccc(Br)cc23)cc1 [Compound 8b, 5-bromo-3-[N-benzyl-N-(4-hydroxycarbamoylphenyl)aminomethyl]-benzothiophene] as the molecule, how does the melting point read?
**A.** 179 °C

**Q.** What about the inhibition at 10 µM [1] of the same molecule?
**A.** 84.9%

**Q.** And the IC50 [1]?
**A.** 850 nM

**Q.** With O=C(NO)c1ccc(NCc2csc3cc(-c4ccccc4)ccc23)cc1 [Compound 13b, 3-[(4-hydroxycarbamoylphenyl)aminomethyl]-6-phenyl-benzothiophene] as the molecule, how does the melting point read?
**A.** 190.5 °C

**Q.** What about the inhibition at 10 µM [1] of the same molecule?
**A.** 89.8%

**Q.** And the IC50 [1]?
**A.** 660 nM

**Q.** With Cc1cc(C(=O)NO)ccc1NCc1csc2ccccc12 [Compound 7d, 3-[(4-hydroxycarbamoyl-2-methylphenyl)aminomethyl]-benzothiophene] as the molecule, how does the melting point read?
**A.** 190 °C

**Q.** And the inhibition at 10 µM [1]?
**A.** 73.4%

**Q.** What about the IC50 [1] of the same molecule?
**A.** 2400 nM

**Q.** With O=C(NO)c1ccc(N(Cc2ccccc2)Cc2csc3cc(-c4ccccc4)ccc23)cc1 [Compound 14b, 3-[N-benzyl-N-(4-hydroxycarbamoylphenyl)aminomethyl]-6-phenyl-benzothiophene] as the molecule, how does the melting point read?
**A.** 102 °C

**Q.** What about the inhibition at 10 µM [1] of the same molecule?
**A.** 61.1%
